Here are results for 2 compounds from patent US10548996B2, “Hydrogels for localized radiotherapy” (Washington University, priority 2014, dated 2020).

The nature of data set [1]: Release of radioactivity from implanted solid chitosan hydrogels to adjacent normal tissues (radiographic imaging). Format: in vivo. Particulars: FIG. 4; rats, non-encapsulated, loaded in solid chitosan hydrogel implant; Day-1 to Day-7.
The nature of data set [2]: In vitro release of fluorescence from chitosan hydrogels to the surrounding media. As to conditions: FIG. 5, all time points tested, up to two weeks. Format: physicochemical. Here is the method:
To determine the release of large molecules from the hydrogels, the following experiment was conducted. The chitosan hydrogels with the best injectability properties were analyzed naïve or loaded with the alginate microparticles with the best encapsulation efficiency. The in vitro release studies were developed by using a large-size molecule such as albumin and a small-size molecule as cresyl violet to detect the efficacy in both encapsulation settings. Albumin is not detectable by fluorescence reader or spectrophotometer, thus FITC was labeled to albumin. […] Different time points were measured to analyze short and long-term release. At 0, 1, 2, 4, 8, and 24 h, for short-term release, and 0, 0.33, 1, 2, 3, 7, 14, 21, 28, 42 days for long-term release, samples from the PBS solution that surrounded the chitosan hydrogels were analyzed by fluorescence reader (Alb-FITC and FITC) at 485/516 nm or spectrophotometer (CV) at 595 nm. The % release was calculated as follows: % Release=(Chitosan hydrogel−Blank)/(Control−Blank)*100
To assess these concepts, the release of fluorescence to the surrounding media was tested from chitosan hydrogels containing free-fluorescein, fluorescien-conjugated to bovine serum albumin (FITC-Alb), and FITC-Alb encapsulated in calcium-alginate microparticles.

Regarding `CC(C)CCCC(C)C1CCC2C3CC(C[131I])C4=C(CCC(O)C4)C3CCC12C` (centres unmarked) [^131I-nor-cholesterol], the “radioactive leakage from the implant to adjacent normal tissues” value in data set [1] was “radioactive leakage from the implant starting at Day-1 that becomes more evident at Day-7”.
For “FITC-Alb: fluorescien-conjugated to bovine serum albumin, in chitosan hydrogel”, the “relative release of fluorescence to the surrounding media” value in data set [2] is “less than half of the relative release of fluorescein”.
